From patent publication US20080234280A1, “Use of Mc4 Receptor Agonist Compounds” (priority 2005, published 2008)

System: Female beagle dogs
Experiment: dog urethral pressure profilometry (Test A)
Assay type: in vivo
Conditions: anaesthetised female beagle dog; for Mean peak urethral pressure (PUP): i.v. infusion over 15 minutes in saline; for PUP increase vs. baseline: i.v. infusion over 15 minutes, baseline (vehicle) PUP 30 mmHg
Method: Female beagle dogs (10-15 kg) are anaesthetised with sodium pentobarbitone (60 mg/mL solution) administered intravenously (IV) at 0.5 ml/kg via the right cephalic vein. Immediately following induction of anaesthesia the dog is intubated and respiration supported by artificial ventilation with oxygen. End tidal CO2 is monitored continuously, using a Datex CO2/O2 monitor and maintained between 4.5 and 4.8% and body temperature maintained between 37° C. and 38° C. An incision is made in the right medial thigh and a polyethylene catheter (6F) inserted into the right femoral vein for administration of compounds and fluid maintenance; immediately venous access is achieved a bolus IV dose of α-chloralose (1% w/v) is administered at 35 mg/kg. A polyethylene catheter (4F) is inserted into the right femoral artery for blood sampling. An incision is made in the right foreleg and the brachial vein and artery isolated, maintenance of anaesthesia is achieved with α-chloralose/borax administered IV at the rate of 10 mg/kg/h via a polyethylene catheter (6F) inserted into the right brachial vein. A laparotomy is performed from the umbilicus to the top of the pubic symphysis via the midline to expose the peritoneum in order to expose the bladder. Both ureters are cannulated towards the kidneys with polyethylene catheters (6F) and urine collected externally; the bladder is catheterised through the dome with a polyethylene catheter (6F), which is in turn connected to a pressure transducer. In order to maintain constant bladder pressure at 10-15 mmHg, urine is removed and ambient temperature saline infused into the bladder. Immediately following the completion of the surgical procedures a further bolus dose of α-chloralose/borax solution is administered IV at 35 mg/kg and the animal allowed to stabilise for a period period ca. 1 hr, during which time haemodynamic and urological parameters were monitored.
Urethral tone (peak urethral pressure (PUP), functional urethral length (FUL) and closing pressure (CP)) is assessed with the aid of an 8F Millar pressure transducer (Millar Instruments, Texas, US) inserted into the bladder through the external meatus. The urethral Millar pressure transducer is then retracted along the length of the urethra (urethral pull through) at a rate of 1 cm/min enabling the determination of PUP, FUL and CP. Urethral pull throughs are repeated every 6 min until at least 4 reproducible urethral profiles are observed. Subsequently increasing concentrations of test compound or vehicle is injected intravenously utilising either a bolus dose or constant infusion and at least a further 4 urethral pull throughs carried out at each concentration investigated. Changes in the PUP, FUL or CP are indicative of compound activity on lower urinary tract function. • Investigation of bladder capacity and external urethral sphincter (EUS) function in the spontaneously hypertensive rat:
was tested in the dog urethral pressure model (Test A) described above. The compound was dissolved in saline (vehicle) and administered by i.v. infusion over a period of 15 minutes, with at least 5 urethral pressure measurements being taken at each dose level during infusion and for 15 minutes post-infusion.

CO[C@H]1CN(C(=O)[C@@H]2CN(c3cccnn3)C[C@H]2c2ccc(F)cc2F)CC[C@]1(OC)c1ccccc1 [Example 8]
Mean peak urethral pressure (PUP) (dose 1.0 mg/kg): 32 mmHg | Mean peak urethral pressure (PUP) (dose 2.0 mg/kg): 36 mmHg | Mean peak urethral pressure (PUP) (dose 3.0 mg/kg): 35 mmHg | PUP increase vs. baseline (dose 1.0 mg/kg): 7% | PUP increase vs. baseline (dose 2.0 mg/kg): 20% | PUP increase vs. baseline (dose 3.0 mg/kg): 17%
